Test results taken from patent US20090186762A1, “METHOD FOR IMPROVING THE TOLERANCE OF PLANTS TO CHILLING TEMPERATURES AND/OR FROST” (BASF SE, priority 2006, published 2009).

How the values were obtained:
Assay type in all cases: in vivo
[1] = test system: Corn seeds (Zea mays; variety Pioneer herbicide resistant 33P71); assay: Cold stress on corn seedlings after seed treatment; conditions: second exposure to cold stress (−5° C., 2 hours, code 13)
Method: Corn seeds (Zea mays; variety Pioneer herbicide resistant 33P71) were treated using either:
T1: Water (untreated) T2: Pyraclostrobin (5 g active ingredient 100 kg seeds) T3. Azoxystrobin (1 g active ingredient/100 kg seeds)
Subsequently, the treated seeds were planted in plastic pots (6 cm×6 cm×7 cm) filled with sand (metro mix). Seeds were incubated in a growth chamber (Conviron) at 25° C. and 60% humidity under a dark/light cycle of 16/8 h for 5 days (seedlings were at code 10). At this point, seedlings were exposed to a temperature of −5° C. for 3 hours. Following cold stress, the viable seedlings were kept growing until they had reached code 13. At this stage, they were submitted to additional 2 hours of cold stress at −5° C. Finally, the number of damaged seedlings (%) for each seed treatment was recorded.

[2] = test system: Arabidopsis thaliana plants; assay: Cold/freezing stress on Arabidopsis thaliana plants, visual assessment of % leaf damage; conditions: for reduction of cold stress symptoms: Arabidopsis plants under different stress conditions
Method: Arabidopsis thaliana plants were grown in pots (8 cm diameter) under controlled environmental conditions at 21° C. during the day and at 19° C. during the night, under a light regiment of 9 h light and 15 h dark per day.
Chemical treatment was done 18 days after sowing. Each pot was treated with 500 μl of spray solution according to the treatment schedule below with a commercial pump spray applicator.
2) Orysastrobin (250 ppm) 3) Orysastrobin (500 ppm) 4) Pyraclostrobin (500 ppm)
After chemical treatment, the pots have been transferred to the same growth conditions for three days. Then the pots were transferred to three different environmental conditions to exert cold stress:
Control plants (A) were kept under the same conditions as described above.
Stressed plants (B) were transferred for 2 days to 6° C. under a 9-15 h day-night cycle. This cold treatment allows Arabidopsis plants to acclimate to a certain extent to the following freezing stress (−4° C., 24 h in the dark) (Wanner et al., 1999, Cold-induced freezing tolerance in Arabidopsis, Plant Physiology 120, 391-399).
Stressed plants (C) were not cold-hardened and kept for another 2 days under control environment before being transferred for one day to −4° C. without light.
After these treatments, all pots were returned to standard growth conditions (controlled environmental conditions) as described above.
3 days and 9 days after chemical treatment (3 days after recovery from freezing treatment) the trial was evaluated by visual assessment, scoring the symptoms in % leaf damage.

[3] = test system: Adult Citrus trees (Citrus sinensis); assay: Field freeze protection of adult Citrus trees by leaf application; conditions: three 1600 g/ha leaf applications at 14 to 18 day intervals
Method: Adult Citrus trees (Citrus sinensis) were treated by three 1600 g/ha pyraclostrobin leaf applications at 14 to 18 day intervals. Applications began shortly before the initial freeze in winter seasons. Temperatures dropped to −6° C. in three separate cold weather events. With extreme low temperatures, nothing is expected to reduce damage.

[4] = stress condition A (control plants, 21° C./19° C., no cold stress), 500 ppm spray, 9 days after chemical treatment
[5] = stress condition B (2 days 6° C. hardening, then −4° C. 24 h dark), 500 ppm spray, 3 days after recovery from freezing
[6] = stress condition C (not cold-hardened, −4° C. 24 h dark), 500 ppm spray, 3 days after recovery from freezing

| Compound | number of damaged seedlings (%) ([1]; seed treatment 1 g active ingredient/100 kg seeds) | reduction of cold stress symptoms [2] | leaf damage ([2]; stress condition A (control plants, 21° C./19° C., no cold stress), 250 ppm spray, 9 days after chemical treatment) [%] | leaf damage [2, 4] [%] | leaf damage ([2]; stress condition B (2 days 6° C. hardening, then −4° C. 24 h dark), 250 ppm spray, 3 days after recovery from freezing) [%] | leaf damage [2, 5] [%] | leaf damage ([2]; stress condition C (not cold-hardened, −4° C. 24 h dark), 250 ppm spray, 3 days after recovery from freezing) [%] | leaf damage [2, 6] [%] | number of damaged seedlings (%) ([1]; seed treatment 5 g active ingredient 100 kg seeds) | chilling protection in citrus ([3]; temperatures dropped to −6° C.) | leaf burn symptoms and fruit drop versus untreated control plants ([3]; temperatures dropped to −6° C. in three cold weather events) |
| --- | --- | --- | --- | --- | --- | --- | --- | --- | --- | --- | --- |
| CO/C=C(/C(=O)OC)c1ccccc1Oc1cc(Oc2ccccc2C#N)ncn1 [Azoxystrobin, azoxystrobin] | 38 | – | – | – | – | – | – | – | – | – | – |
| CNC(=O)/C(=N/OC)c1ccccc1CO/N=C(C)/C(=N/OC)C(/C)=N/OC [Orysastrobin, orysastrobin] | – | highly effective to reduce cold stress symptoms | 0 | 0 | 0 | 0 | 5 | 10 | – | – | – |
| pyraclostrobin | – | highly effective to reduce cold stress symptoms | – | 0 | – | 0 | – | 30 | 0 | strong chilling protection | less leaf burn symptoms and fruit drop |
